Test results reported in patent US12116358B2, “Substituted indoles and methods of use thereof” (EPIZYME, INC., priority 2018, dated 2024).
Where two headings read alike, the source gives them in different places.

Experiments:
H3K36me3 in A549 cells = assay: In-Cell Western (ICW) assay of SETD2 inhibitors (A549 assay); type: cell-based, human
Method in brief: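 H3K36me3 In-Cell Western: cells exposed to compound for 3 days at 4,000 cells/well, 37° C. DRAQ5 (1:1000) marked cell number, with 700/800-channel Licor read-out.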

SETD2(1434-1711) = target: T1, SETD2(1434-1711) (Homo sapiens, UniProt Q9BYW2); assay: SETD2 (1434-1711) assay; type: biochemical
T1 construct: SETD2 (1434-1711) Assay; catalogue N/A
T1 sequence (Q9BYW2 1434-1711): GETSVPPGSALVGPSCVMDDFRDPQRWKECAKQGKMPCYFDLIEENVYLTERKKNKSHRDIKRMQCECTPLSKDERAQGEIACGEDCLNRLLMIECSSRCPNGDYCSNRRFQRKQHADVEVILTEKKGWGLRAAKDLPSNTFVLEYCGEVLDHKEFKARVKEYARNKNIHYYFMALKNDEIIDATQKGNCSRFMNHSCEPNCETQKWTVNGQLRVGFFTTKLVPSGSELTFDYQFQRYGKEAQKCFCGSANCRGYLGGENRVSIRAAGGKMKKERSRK

[1] = Homo sapiens, A549 cells, read-out: SETD2 A549
[2] = A549 cells, read-out: SETD2 A549

SMILES | IC50 (H3K36me3 in A549 cells; [1]) | IC50 (SETD2(1434-1711); read-out: SETD2 (1434-1711)) | IC50 (H3K36me3 in A549 cells; [2]) | IC50 (H3K36me3 in A549 cells; Homo sapiens, A549, read-out: SETD2 A549) | IC50 (SETD2(1434-1711))
Cc1ccc(F)c2cc(C(=O)Nc3cccc(N4CCOCC4CCO)c3)[nH]c12 (centres unmarked) [compound 331] | 1.6 µM | 0.6 µM |  |  | 
CC(=O)N1CCN([C@@H]2CCC[C@@H](NC(=O)c3cc4c(F)ccc(C)c4[nH]3)C2)C[C@H]1CO [compound 1076] | 1.7 µM | 1.4 µM |  |  | 
Cc1ccc(F)c2cc(C(=O)Nc3cc(F)cc(N4CCC(C)(N5CCOCC5)C4)c3)[nH]c12 (centres unmarked) [compound 159] | 0.3 µM | 0.08 µM |  |  | 
Cc1cccc2cc(C(=O)NC(C)c3ccccc3Cl)[nH]c12 (centres unmarked) [compound 1154] |  | 6 µM | > 25 µM |  | 
Cc1ccc(F)c2cc(C(=O)N[C@@H]3CCC[C@H](N4CCn5c(nccc5=O)C4)C3)[nH]c12 [compound 1049] | 0.1 µM | 0.05 µM |  |  | 
Cc1ccc(F)c2cc(C(=O)Nc3cccc(CC4CCCN(C)C4)c3)[nH]c12 (centres unmarked) [compound 352] | > 2 µM | 0.1 µM |  |  | 
Cc1cccc2cc(C(=O)NC3CC4CCC(C3)N4C(=O)CCCN)[nH]c12 (centres unmarked) [compound 552] |  | 7.7 µM | > 25 µM |  | 
CC(=O)N1CCN([C@H]2CCC[C@@H](NC(=O)c3cc4c(F)ccc(C)c4[nH]3)C2)C[C@H]1C [compound 930] | 0.01 µM | 0.004 µM |  |  | 
Cc1ccc(F)c2cc(C(=O)Nc3cccc(N4CCN(C(C)C)C(C)C4)c3)[nH]c12 (centres unmarked) [compound 205] |  | 0.03 µM | 0.4 µM |  | 
COC(=O)N1CCC2(CCN(c3cccc(NC(=O)c4cc5c(F)ccc(C)c5[nH]4)c3)CC2)C1 [compound 127] | 0.3 µM | 0.04 µM |  |  | 
Cc1ccc(F)c2cc(C(=O)N[C@@H]3CCC[C@H](N4CCn5c(c[nH]c5=O)C4)C3)[nH]c12 [compound 1059] | 0.6 µM | 0.02 µM |  |  | 
Cc1cccc2cc(C(=O)Nc3ccc4cncnc4c3)[nH]c12 [compound 466] |  | 1.9 µM | 7 µM |  | 
Cc1ccc(F)c2cc(C(=O)Nc3cccc(C4CCN(C(=O)CN(C)C)C4)c3)[nH]c12 (centres unmarked) [compound 226] |  | 0.06 µM | 0.5 µM |  | 
COC(=O)N1CCC2(CC1)CN(c1cccc(NC(=O)c3cc4c(F)ccc(C)c4[nH]3)c1)C2 [compound 112] |  | 0.03 µM | 0.2 µM |  | 
Cc1ccc(F)c2cc(C(=O)Nc3cccc(N4CCC(N(CCO)CCO)CC4)c3)[nH]c12 [compound 227] |  | 0.03 µM | 0.5 µM |  | 
Cc1ccc(NC(=O)c2cc3cccc(C)c3[nH]2)cc1CN1CCOCC1 [compound 456] | 6.1 µM | 1.4 µM |  |  | 
Cc1ccc(F)c2cc(C(=O)Nc3cc(C4CCN(C)CC4)n[nH]3)[nH]c12 [compound 558] |  | > 10 µM | > 25 µM |  | 
CC(=O)N1CCN(C2COCC(NC(=O)c3cc4c(F)ccc(C)c4[nH]3)C2)CC1 (centres unmarked) [compound 987] |  | > 10 µM | > 2 µM |  | 
Cc1ccc(F)c2cc(C(=O)NC3CCCC(N4CCN5C(=O)NCC5C4)C3)[nH]c12 (centres unmarked) [compound 1084] |  | 0.1 µM | 0.5 µM |  | 
Cc1ccc(F)c2cc(C(=O)NC3CCCC(N4CCN(C(=O)C(C)C)C(C(F)(F)F)C4)C3)[nH]c12 (centres unmarked) [compound 1172] |  | 3.1 µM | > 2 µM |  | 

SMILES | IC50 (H3K36me3 in A549 cells; [1]) | IC50 (SETD2(1434-1711); read-out: SETD2 (1434-1711)) | IC50 (H3K36me3 in A549 cells; [2]) | IC50 (H3K36me3 in A549 cells; Homo sapiens, A549, read-out: SETD2 A549) | IC50 (SETD2(1434-1711))
Cc1ccc(F)c2cc(C(=O)Nc3cccc(N4CCN(C(C)C)CC4)c3)[nH]c12 [compound 243] |  | 0.05 µM | 0.6 µM |  | 
Cc1ccc(F)c2cc(C(=O)Nc3cccc(N4CCC5(CCNC5)CC4)c3)[nH]c12 [compound 241] |  | 0.01 µM | 0.6 µM |  | 
CCNCC1CN(c2cccc(NC(=O)c3cc4c(F)ccc(C)c4[nH]3)c2)CCO1 (centres unmarked) [compound 203] |  | 0.01 µM | 0.4 µM |  | 
Cc1cccc2cc(C(=O)NC3CCC(NC(=O)Cc4cccnc4)CC3)[nH]c12 (centres unmarked) [compound 605] |  | > 50 µM | > 25 µM |  | 
Cc1ccc(F)c2cc(C(=O)Nc3cccc(C4(O)CCC(N(C)C)CC4)c3)[nH]c12 (centres unmarked) [compound 195] | 0.4 µM | 0.04 µM |  |  | 
Cc1ccc(F)c2cc(C(=O)Nc3cccc(N4CCN(C(=O)CN(C)C)CC4)c3)[nH]c12 [compound 208] |  | 0.06 µM | 0.4 µM |  | 
Cc1cc2nccn2nc1C(NC(=O)c1cc2c(F)ccc(C)c2[nH]1)C1CC1 (centres unmarked) [compound 481] |  | 1.9 µM | 9.7 µM |  | 
Cc1ccc(F)c2cc(C(=O)Nc3cccc(N4CCN(CCO)CC4)c3)[nH]c12 [compound 204] |  |  |  | 0.4 µM | 0.08 µM
Cc1ccc(F)c2cc(C(=O)Nc3cccc(CN4CCN(C)CC4)c3)[nH]c12 [compound 421] |  | 0.4 µM | 3.6 µM |  | 
CC(=O)N1CCN(C2COCC(NC(=O)c3cc4c(F)ccc(C)c4[nH]3)C2)CC1 (centres unmarked) [compound 363] |  | 1.5 µM | > 2 µM |  | 
Cc1ccc(F)c2cc(C(=O)NC3CCCC(N4CCN5C(=O)CN(C)C(=O)C5C4)C3)[nH]c12 (centres unmarked) [compound 1102] |  | 3.9 µM | > 2 µM |  | 
Cc1nnc(C2CCCC(NC(=O)c3cc4c(F)ccc(C)c4[nH]3)C2)o1 (centres unmarked) [compound 976] |  | 6.6 µM | > 2 µM |  | 
CCN(CC)CCCC(NC(=O)c1cc2cccc(C)c2[nH]1)c1ncccc1C (centres unmarked) [compound 582] | > 25 µM | 31.2 µM |  |  | 
Cc1ccc(F)c2cc(C(=O)N[C@@H]3CCC[C@@H](N4CCn5cnnc5C4)C3)[nH]c12 [compound 861] |  | 1.9 µM | > 2 µM |  | 
CC(=O)N1CCC(N2CCCCC(NC(=O)c3cc4c(F)ccc(C)c4[nH]3)C2)CC1 (centres unmarked) [compound 867] | > 2 µM | 0.4 µM |  |  | 
Cc1cccc2cc(C(=O)Nc3cccc(N4CCN(C(=O)CN)CC4)c3)[nH]c12 [compound 396] |  | 0.3 µM | 2.3 µM |  | 
CC(=O)N1CCN([C@@H]2C[C@@H](NC(=O)c3cc4c(F)ccc(C)c4[nH]3)CN(C)C2)CC1 [compound 1108] | > 2 µM | > 10 µM |  |  | 
CC(=O)N1CCN(c2cc(F)cc(NC(=O)c3cc4c(F)cccc4[nH]3)c2)CC1 [compound 271] | 0.8 µM | 0.2 µM |  |  | 
CCC(=O)N1CCN([C@H]2CCC[C@@H](NC(=O)c3cc4c(F)ccc(C)c4[nH]3)C2)CC1 [compound 839] |  | 0.01 µM | 0.04 µM |  | 
Cc1ccc(F)c2cc(C(=O)Nc3cncc(N4CCN(C)CC4)c3)[nH]c12 [compound 410] |  | 0.7 µM | 3 µM |  | 
